Assay results: patent EP2935252B1, “NOVEL BIS-CHROMONE DERIVATIVES, METHODS FOR THEIR PREPARATION AND USES THEREOF” (Rijksuniversiteit te Groningen, priority 2012, dated 2014)

Assays:
[1] = test system: LAD2 mast cell line; assay: β-hexosaminidase release assay: inhibition of Compound 48/80-evoked mast cell degranulation; type: cell-based, human; details: for IC50: LAD2 cells; for efficacy: concentration response curves, Fig. 3, Compound 48/80 1.0 µM; for change in inhibitory activity after photoisomerization: non-irradiated vs 365 nm irradiated; for potency relative to DSCG: β-hexosaminidase release assays, Fig. 3
Experimental: LAD2 Cell culture The human mast cell line LAD2 was kindly provided by Dr. A. Kirshenbaum (National Institute of Allergy and Infectious Diseases, Bethesda, MD). LAD2 cells were cultured in suspension at 37 °C, 95% relative humidity and 5% CO2 in StemPro-34 Serum-free medium (Invitrogen) supplemented with 2 mM L-glutamine (Sigma Aldrich), 100 IU/mL penicillin (Sigma Aldrich), 100 µg/mL streptomycin (Sigma Aldrich) and 100 ng/ml rhSCF (Invitrogen). Cells were not allowed to grow beyond a density of 5.0 x 10^5 cells/mL and fresh medium was supplied once a week.
β-Hexosaminidase Assay β-Hexosaminidase release was measured according to a previously published method.^28 In short, 50 µL of supernatant was transferred to a 96-well plate. To this 100 µL of a 2 mg/mL solution of p-nitrophenyl- N-acetyl-D-glucosaminidine in citrate buffer pH 4.5 was added. The plate was incubated at 37 °C for 1 h. The reaction was stopped by adding 100 µL of 0.4 M glycine solution and the absorbance was measured on a plate reader at a wavelength of 405 nm. Subsequently, the percentage released β-hexosaminidase was determined by comparison with the absorption of cell lysate of the same cells using the following formula: (supernatant)/(supernatant + lysate) × 100% = % Reaased β−Hexosaminidase. [formula]
Inhibitory Activity Tests LAD2 cells were suspended in HEPES buffer at a concentration of 50,000 cells/mL. 80 µL of cell suspension was transferred to a microreaction cup to which 10 µL of inhibitor solution was added. This was incubated at 37 °C for 30 min after which 10 µL of a Compound 48/80 solution was added. Next, the cell suspension was incubated for 30 min at 37 °C and the β-hexosaminidase release was assayed.
MAC and PAC seem to have an almost 100 times greater inhibitory potency than DSCG.
Next, the difference in inhibitory activity between the two photoisomers of DAC, MAC and PAC was determined. The inhibitory activity was determined for each compound at two concentrations that were on the steep part of the concentration response curve, because at these concentrations a possible difference in inhibitory activity is best detectable. LAD2 cells were incubated with either non-irradiated solutions of DAC, MAC and PAC or with solutions that were irradiated with 365 nm light prior incubation. After evoking a degranulation with Compound 48/80, β-hexosaminidase release was determined.. […] At a concentration of 10 µM the relative difference in inhibitory activity between the two forms of PAC is 25% (see Figure 4).

[2] = Ratio of trans and cis photoisomers determined by RP-HPLC at the isosbestic point; type: physicochemical
Experimental: Photoswitching Experiments Irradiation experiments were performed with a Spectroline ENB-280C/FE UV lamp (365 nm) and Thor Labs OSL1-EC Fiber Illuminator (white light).
The photoswitchable behavior of DAC, MAC and PAC was studied using UV-VIS spectroscopy and RP-HPLC. The trans-isomers of DAC, MAC and PAC have a characteristic absorbance maximum between 300 and 400 nm in water. This absorbance maximum decreases when the molecules are photoswitched to their cis-isomers and a new absorbance maximum appears around 430 nm (Fig. 2A-C).^25 Isosbestic points at 405 nm (DAC), 270 nm (MAC) and 270 nm (PAC) clearly illustrate the selective isomerization and reversibility of the photoswitching process. Using RP-HPLC, the ratio of photoisomers was determined for both the non-irradiated and 365 nm-irradiated forms of DAC, MAC and PAC (Table 1). Higher photostationary states were obtained when the photoswitchable inhibitors were irradiated with 365 nm light in DMSO as compared to water (Table 1). Therefore, the compounds were switched at a high concentration in DMSO and diluted in water to obtain a maximum concentration of 1% DMSO (v/v). […]
Table 1 Ratio of trans and cis isomers of the photoswitchable inhibitors under different conditions. Ratios are determined at the isosbestic point (DAC=405 nm, MAC=270 nm, PAC=270 nm) with RP-HPLC (C18, flow 1 mL/min, MeCN and H3PO4pH=3.0).

[3] = Homo sapiens, light or radiation study, degranulation evoked by 1.0 µM Compound 48/80, non-irradiated inhibitors, 30 min pre-incubation, n=3

Row | IC50 [1, 3] | cis isomer in the photo stationary state (PSS) ([2]; irradiated form (365 nm)) | trans isomer in the photo stationary state (PSS) ([2]; non-irradiated form) | SMILES | inhibitory activity ([1]; Compound 48/80 1.0 µM) | efficacy [1] | change in inhibitory activity after photoisomerization [1] | IC50 ([1]; degranulation evoked by 1.0 µM Compound 48/80, n=3) | inhibitory activity ([1]; lower concentration of Compound 48/80 (0.1 µM), data not shown) | potency relative to DSCG [1] | inhibition at 10 µM ([1]; Homo sapiens, LAD2, light or radiation study, concentration of 10 µM, non-irradiated form more active than irradiated form, read-out: relative difference in inhibitory activity between non-irradiated and 365 nm irradiated form)
1 | 272 µM |  |  | O=C([O-])c1cc(=O)c2cc(/N=N/c3ccc4oc(C(=O)[O-])cc(=O)c4c3)ccc2o1.[Na+].[Na+] [DAC, Sodium (E)-6,6'-(diazene-1,2-diyl)bis(4-oxo-4H-chromene-2-carboxylate)] | significantly greater inhibitory activity than the original drug DSCG | greater efficacy than PAC | a significant change in inhibitory activity after photoisomerization was not observed |  |  |  | 
2 |  |  |  | O=C([O-])c1cc(=O)c2c(OCC(O)COc3cccc4oc(C(=O)[O-])cc(=O)c34)cccc2o1.[Na+].[Na+] [DSCG, DiSodiumCromoGlycate, reference compound] | did not show any inhibitory activity |  |  | > 1000 µM | able to inhibit mast cell degranulation |  | 
3 | 10 µM |  |  | O=C([O-])c1cc(=O)c2c(OCc3cccc(/N=N/c4cccc(COc5cccc6oc(C(=O)[O-])cc(=O)c56)c4)c3)cccc2o1.[Na+].[Na+] [MAC, Sodium (E)-5,5'-(((diazene-1,2-diylbis(3,1-phenylene))bis(methylene))bis(oxy))bis(4-oxo-4H-chromene-2-carboxylate)] | significantly greater inhibitory activity than the original drug DSCG | greater efficacy than PAC |  |  |  | ~100 times | 
4 | 28 µM | 81% | 91% | O=C([O-])c1cc(=O)c2c(OCc3ccc(/N=N/c4ccc(COc5cccc6oc(C(=O)[O-])cc(=O)c56)cc4)cc3)cccc2o1.[Na+].[Na+] [PAC, Sodium (E)-5,5'-(((diazene-1,2-diylbis(4,1-phenylene))bis(methylene))bis(oxy))bis(4-oxo-4H-chromene-2-carboxylate)] | significantly greater inhibitory activity than the original drug DSCG |  | A significant difference was observed |  |  | ~100 times | 25%
